# Source: patent publication US20220016215A1, “GIP RECEPTOR AGONIST PEPTIDE COMPOUNDS AND USES THEREOF” (TAKEDA PHAARMACEUTICAL COMPANY LIMITED, priority 2018, published 2022)
# Where “and” joins values, the source holds several entries; their conditions need not be identical. Equal values may be shown once. Marks after values point to notes of the source that are not given here.
# Legend:
# [1] = test system: morphine (0.6 mg/kg, s.c.)-induced emesis in ferrets; assay: Morphine-induced acute emetic model in male ferrets; format: in vivo, ferret; conditions: for Emesis: Duration / Emesis: Frequency / Emesis: No. of animals (responder/used) / Fidget: Duration / Fidget: Frequency / Fidget: No. of animals (responder/used) / Licking: Duration / Licking: Frequency / Licking: No. of animals (responder/used) / Retching: Duration / Retching: Frequency / Retching: No. of animals (responder/used) / Vomiting: Duration / Vomiting: Frequency / Vomiting: No. of animals (responder/used) / Emesis: Latency / Fidget: Latency / Licking: Latency / Retching: Latency / Vomiting: Latency: morphine 0.6 mg/kg s.c. 4 h after drug; for Emesis: Latency / Fidget: Latency / Licking: Latency / Retching: Latency / Vomiting: Latency: non-responders counted as 30 min; for Comment: Anti-Emetic Activity (inhibition) on morphine-induced emesis: summary of the morphine experiments
# Method: Example 6—In-Vivo Effect of GIP Receptor Agonist Peptides on Emesis in Morphine Induced Emesis Model in Live Male Ferrets
# Effect of subcutaneously administered GIP receptor agonist peptide in morphine-induced acute emetic model.
# To evaluate the antiemetic effect, the GIP receptor agonist peptides other than natural human GIP were subcutaneously administered into male ferrets 30 minutes before morphine administration. […]. Up to 60 minutes after morphine administration, the condition of the ferrets was monitored to record the frequencies and time points of abdominal contraction motions, vomiting behaviors, licking with the tongue, and fidgety behavior occurring
# Effects of Subcutaneously Administered GIP Receptor Agonist Peptides in Morphine-Induced Acute Emetic Model
# 30 nmol/kg of Compounds 3 and 5 were dissolved with a vehicle (0.09 w/v % tween 80/10% DMSO/saline), respectively, to prepare test solutions. […] of the test solutions and the vehicle were subcutaneously administered to ferrets (4 in each group), respectively. At the time of each of 4 hours, after administration, 0.6 mg/kg of morphine was subcutaneously administered. […] See results in Tables 6, 7 and 8.
# (§1) 10 nmol/kg of each compound dissolved with a vehicle (0.09 w/v % tween 80/10% DMSO/saline) respectively, to prepare test solutions. […] of the test solutions and the vehicle were subcutaneously administered to ferrets (4 in each group), respectively. At the time of each of 4 hours, or 120 hours after administration, 0.6 mg/kg of morphine was subcutaneously administered. Up to 360 minutes after morphine administration, the condition of the ferrets was monitored to record the frequencies and time points of abdominal contraction motions, vomiting behaviors, licking with the tongue, and fidgety behavior occurring.
# as §1, with “30 nmol/kg” for “10 nmol/kg”, “80/10% DMSO/saline),respectively,” for “80/10% DMSO/saline) respectively,”
# human GIPR = biological target: T1, human GIPR (Homo sapiens, UniProt P48546); assay: Agonist activity on human GIPR, CRE-luciferase reporter assay (increase in intracellular cAMP as indicator); format: cell-based; conditions: GLP1R EC50 / GIPR EC50
# T1 construct: expressed in transfected cells
# T1 sequence (P48546 22-466): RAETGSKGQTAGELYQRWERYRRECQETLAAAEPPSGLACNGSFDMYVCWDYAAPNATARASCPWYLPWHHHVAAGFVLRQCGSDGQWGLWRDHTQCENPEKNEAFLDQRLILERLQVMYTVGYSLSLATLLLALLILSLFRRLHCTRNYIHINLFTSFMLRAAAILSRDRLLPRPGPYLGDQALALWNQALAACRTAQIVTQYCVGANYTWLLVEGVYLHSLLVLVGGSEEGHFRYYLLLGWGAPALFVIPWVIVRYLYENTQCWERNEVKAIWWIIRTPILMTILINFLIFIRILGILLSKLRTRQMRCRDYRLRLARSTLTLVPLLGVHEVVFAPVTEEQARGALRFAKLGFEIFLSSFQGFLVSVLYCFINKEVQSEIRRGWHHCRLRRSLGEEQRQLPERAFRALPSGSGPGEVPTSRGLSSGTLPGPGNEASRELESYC
# From the text: The human GIPR gene having an identical sequence to Genebank Accession No. U39231 is cloned into a pMSRα-neo vector to prepare hGIPR/pMSRα-neo.
# (2) Construction of Reporter Plasmid Expressing Cell
# Luciferase reporter gene with a cAMP-responsive sequence located upstream is transferred to a CHO-K1 cell to construct a CRE-LUC/CHO-K1 cell.
# (4) Transfer of Human GIPR Gene to CRE-LUC/CHO-K1 Cell and Obtaining of Expressing Cell
# The plasmid hGIPR/pMSRα-neo obtained in (1) is transferred to the CRE-LUC/CHO-K1 cell obtained in (2) to obtain a transformant. Subsequently, the cell line inducing the luciferase expression, hGIPR/CRE-LUC/CHO-K1 cell, is selected from the obtained transformant by adding GIP.
# 25 μL each of the hGIPR/CRE-LUC/CHO-K1 cell is inoculated in a 384-well white plate (Corning) in such a way as to provide 5×10^3 cells/well and may be cultured in a HamF12 medium containing 10% fetal bovine serum, 100 U/mL penicillin, and 100 μg/mL streptomycin in a CO2 incubator at 37° C. overnight. 5 μL of a medium containing a test compound is added to the cells and incubated for 4 hours at the indicated concentration in a CO2 incubator at 37° C. Steady-Glo (Promega) is added in amounts of 30 μL and shaken under light shielding. Twenty minutes later, luciferase activity is measured using a plate reader Envision (PerkinElmer). The GIPR agonist activity is calculated with increase in intracellular cAMP concentration as the indicator when the luciferase activity in the presence of 10 nM of GIP was 100% and the luciferase activity in the case of adding DMSO instead of the test compound was 0%.
# [2] = ferrets, 10 nmol/kg s.c., morphine administered 4 h after, cumulative total duration, individual animals and Mean
# [3] = ferrets, 10 nmol/kg s.c., morphine administered 4 h after, individual animals and Mean
# [4] = ferrets, 10 nmol/kg s.c., morphine administered 4 h after, individual animals and Mean, no emetic response = 30 min
# [5] = ferrets, 10 nmol/kg s.c., morphine administered 4 h after, individual animals and Mean, no response = 30 min
compound,measurement,setting,value
YAibEGTFISDYSIELDK(Lys-(ethylene glycol)2-C15 diacid)AAQAFIEWLLAQGPSSGAPPPS-NH2 [Compound 20],Retching Latency,"[1]; ferrets, 10 nmol/kg s.c., morphine (0.6 mg/kg, s.c.) administered 4 h after, individual animals and Mean, no emetic response = 30 min",30 min
same,Emesis (Retching + Vomiting) Duration,[1]; [2],0 min (4×) and 0.0 min
same,Retching Duration,[1]; [2],0 min
same,Vomiting Duration,[1]; [2],0 min
same,Fidget Duration,[1]; [3],0 min (4×) and 0.0 min
same,Licking Duration,[1]; [3],0 min (4×) and 0.0 min
same,Retching Frequency,[1]; [3],0
same,Vomiting Frequency,[1]; [3],0
same,Emesis (Retching + Vomiting) Latency,[1]; [4],30 min
same,Vomiting Latency,[1]; [4],30 min
same,Fidget Latency,[1]; [5],30 min (4×) and 30.0 min
same,Licking Latency,[1]; [5],30 min (4×) and 30.0 min
same,Emesis: Duration,"[1]; ferrets, 10 nmol/kg s.c.",0.0 ± 0.0 min
same,Emesis: Frequency,"[1]; ferrets, 10 nmol/kg s.c.",0.0 ± 0.0
same,Emesis: No. of animals (responder/used),"[1]; ferrets, 10 nmol/kg s.c.",0/4 #
same,Fidget: Duration,"[1]; ferrets, 10 nmol/kg s.c.",0.0 ± 0.0^ min
same,Fidget: Frequency,"[1]; ferrets, 10 nmol/kg s.c.",0.0 ± 0.0
same,Fidget: No. of animals (responder/used),"[1]; ferrets, 10 nmol/kg s.c.",0/4 #
same,Licking: Duration,"[1]; ferrets, 10 nmol/kg s.c.",0.0 ± 0.0^ min
same,Licking: Frequency,"[1]; ferrets, 10 nmol/kg s.c.",0.0 ± 0.0
same,Licking: No. of animals (responder/used),"[1]; ferrets, 10 nmol/kg s.c.",0/4 #
same,Retching: Duration,"[1]; ferrets, 10 nmol/kg s.c.",0.0 ± 0.0 min
same,Retching: Frequency,"[1]; ferrets, 10 nmol/kg s.c.",0.0 ± 0.0
same,Retching: No. of animals (responder/used),"[1]; ferrets, 10 nmol/kg s.c.",0/4 #
same,Vomiting: Duration,"[1]; ferrets, 10 nmol/kg s.c.",0.0 ± 0.0 min
same,Vomiting: Frequency,"[1]; ferrets, 10 nmol/kg s.c.",0.0 ± 0.0
same,Vomiting: No. of animals (responder/used),"[1]; ferrets, 10 nmol/kg s.c.",0/4 #
same,Emesis: Latency,"[1]; ferrets, 10 nmol/kg s.c.",30.0 ± 0.0 min
same,Fidget: Latency,"[1]; ferrets, 10 nmol/kg s.c.",30.0 ± 0.0 min
same,Licking: Latency,"[1]; ferrets, 10 nmol/kg s.c.",30.0 ± 0.0 min
same,Retching: Latency,"[1]; ferrets, 10 nmol/kg s.c.",30.0 ± 0.0 min
same,Vomiting: Latency,"[1]; ferrets, 10 nmol/kg s.c.",30.0 ± 0.0 min
same,Comment: Anti-Emetic Activity (inhibition) on morphine-induced emesis,[1]; male ferrets,100% inhibition
same,Selectivity Ratio (B/A),human GIPR,">100,000"
CCCCCCCCCCCCCCCC(=O)NCCCC[C@H](NC(=O)[C@H](Cc1c[nH]c2ccccc12)NC(=O)[C@H](CC(=O)O)NC(=O)[C@H](CC(N)=O)NC(=O)[C@H](CCCCN)NC(=O)[C@H](CCCCN)NC(=O)CNC(=O)[C@H](CCCCN)NC(=O)[C@H](CCC(N)=O)NC(=O)[C@H](C)NC(=O)[C@H](CC(C)C)NC(=O)[C@H](CC(C)C)NC(=O)[C@H](Cc1c[nH]c2ccccc12)NC(=O)[C@H](CC(N)=O)NC(=O)[C@@H](NC(=O)[C@H](Cc1ccccc1)NC(=O)[C@H](CC(=O)O)NC(=O)[C@H](CCC(N)=O)NC(=O)[C@H](CCC(N)=O)NC(=O)[C@H](Cc1c[nH]cn1)NC(=O)[C@@H](NC(=O)[C@H](CCCCN)NC(=O)[C@H](CC(=O)O)NC(=O)[C@H](CCSC)NC(=O)[C@H](C)NC(=O)[C@@H](NC(=O)[C@H](CO)NC(=O)[C@H](Cc1ccc(O)cc1)NC(=O)[C@H](CC(=O)O)NC(=O)[C@H](CO)NC(=O)[C@@H](NC(=O)[C@H](Cc1ccccc1)NC(=O)[C@@H](NC(=O)CNC(=O)[C@H](CCC(=O)O)NC(=O)[C@@H](C)NC(=O)[C@@H](N)Cc1ccc(O)cc1)[C@@H](C)O)[C@@H](C)CC)[C@@H](C)CC)[C@@H](C)CC)C(C)C)C(=O)N[C@@H](Cc1c[nH]cn1)C(=O)N[C@@H](CC(N)=O)C(=O)N[C@H](C(=O)N[C@H](C(=O)N[C@@H](CCC(N)=O)C(N)=O)[C@@H](C)CC)[C@@H](C)CC [Compound 2],Emesis: Duration,"[1]; ferret, 1047 μg/kg s.c.",0.3 ± 0.6 min
same,Emesis: Frequency,"[1]; ferret, 1047 μg/kg s.c.",2.7 ± 4.6
same,Emesis: No. of animals (responder/used),"[1]; ferret, 1047 μg/kg s.c.",1/3
same,Fidget: Duration,"[1]; ferret, 1047 μg/kg s.c.",0.3 ± 0.6 min
same,Fidget: Frequency,"[1]; ferret, 1047 μg/kg s.c.",0.3 ± 0.6
same,Fidget: No. of animals (responder/used),"[1]; ferret, 1047 μg/kg s.c.",1/3
same,Licking: Duration,"[1]; ferret, 1047 μg/kg s.c.",0.0 ± 0.0 min
same,Licking: Frequency,"[1]; ferret, 1047 μg/kg s.c.",0.0 ± 0.0
same,Licking: No. of animals (responder/used),"[1]; ferret, 1047 μg/kg s.c.",0/3 #
same,Retching: Duration,"[1]; ferret, 1047 μg/kg s.c.",0.3 ± 0.6 min
same,Retching: Frequency,"[1]; ferret, 1047 μg/kg s.c.",2.7 ± 4.6
same,Retching: No. of animals (responder/used),"[1]; ferret, 1047 μg/kg s.c.",1/3
same,Vomiting: Duration,"[1]; ferret, 1047 μg/kg s.c.",0.0 ± 0.0 min
same,Vomiting: Frequency,"[1]; ferret, 1047 μg/kg s.c.",0.0 ± 0.0
same,Vomiting: No. of animals (responder/used),"[1]; ferret, 1047 μg/kg s.c.",0/3
same,Emesis: Latency,"[1]; ferret, 1047 μg/kg s.c.",22.7 ± 12.7 min
same,Fidget: Latency,"[1]; ferret, 1047 μg/kg s.c.",22.7 ± 12.7 min
same,Licking: Latency,"[1]; ferret, 1047 μg/kg s.c.",30.0 ± 0.0 min
same,Retching: Latency,"[1]; ferret, 1047 μg/kg s.c.",22.7 ± 12.7 min
same,Vomiting: Latency,"[1]; ferret, 1047 μg/kg s.c.",30.0 ± 0.0 min
same,Attenuation of morphine-induced emesis (in words),"[1]; male ferrets, 30 nmol/kg s.c. 30 minutes before morphine 0.6 mg/kg s.c.",completely attenuated
same,Comment: Anti-Emetic Activity (inhibition) on morphine-induced emesis,[1]; male ferrets,partial inhibition
same,Selectivity Ratio (B/A),human GIPR,417
